Reference: patent US20090181408A1 (AMANO ENZYME INC., priority 2006, published 2009)
“And” between values parts separate entries of the source, which are not always exact repeats. Equal values may be shown once.

Legend:
purified FAD-GDH [1] = molecular target: purified FAD-GDH (Aspergillus oryzae, UniProt A0A1S9DW10); experiment: Substrate specificity 1 of purified FAD-GDH (PMS/NTB); type: biochemical, Aspergillus oryzae BB-56; details: reaction rate with respect to D-glucose assumed 100%, PIPES-NaOH pH 6.5, 37° C.
Description: Thus, the enzymatic activity was measured. The relative activity with respect to each substrate was calculated when the reaction rate with respect to D-glucose was assumed to be 100% (Table 3).

[2] = system: FAD-GDH derived from Aspergillus oryzae BB-56; experiment: Substrate specificity 2, relative activity (PMS/DCIP); type: biochemical; details: activity with D-glucose assumed 100%; dialyzed culture filtrate; MOPS pH 7.0, 25° C.
Description: (§1) 10 mL of each culture filtrate derived from Aspergillus oryzae BB-56, IAM2603, IAM2628, IAM2683, IAM2736, IAM2706, or NBRC30113 was placed in a dialysis membrane 36 and dialyzed in 10 mM KH2PO4—NaOH at 4° C. over night.
(§2) By measuring the decrease of DCIP by the reduction reaction in the absorbance at 600 nm, the FAD-GDH activity was measured. The activity with respect to each substrate was calculated when the activity with respect to D-glucose as a substrate was assumed to be 100% (Table 4). From the results, the substrate specificities of FAD-GDH derived from Aspergillus oryzae BB-56, IAM2603, IAM2628, IAM2683, IAM2736, IAM2706, or NBRC30113 are the same as each other.

[3] = system: FAD-GDH derived from Aspergillus oryzae IAM2603; experiment: as above; type: biochemical; details: activity with D-glucose assumed 100%; dialyzed culture filtrate; MOPS pH 7.0, 25° C.
Description: as §1, §2

[4] = system: FAD-GDH derived from Aspergillus oryzae IAM2628; experiment: as above; type: biochemical; details: activity with D-glucose assumed 100%; dialyzed culture filtrate; MOPS pH 7.0, 25° C.
Description: as §1, §2

[5] = system: FAD-GDH derived from Aspergillus oryzae IAM2683; experiment: as above; type: biochemical; details: activity with D-glucose assumed 100%; dialyzed culture filtrate; MOPS pH 7.0, 25° C.
Description: as §1, §2

[6] = system: FAD-GDH derived from Aspergillus oryzae IAM2706; experiment: as above; type: biochemical; details: activity with D-glucose assumed 100%; dialyzed culture filtrate; MOPS pH 7.0, 25° C.
Description: as §1, §2

[7] = system: FAD-GDH derived from Aspergillus oryzae IAM2736; experiment: as above; type: biochemical; details: activity with D-glucose assumed 100%; dialyzed culture filtrate; MOPS pH 7.0, 25° C.
Description: as §1, §2

[8] = system: FAD-GDH derived from Aspergillus oryzae NBRC30113; experiment: as above; type: biochemical; details: activity with D-glucose assumed 100%; dialyzed culture filtrate; MOPS pH 7.0, 25° C.
Description: as §1, §2

purified FAD-GDH [9] = experiment: Inhibition test with 1,10-phenanthroline (DCIP/1-methoxy PMS); type: biochemical, Aspergillus oryzae
Description: The enzymatic activities were measured in the control group and the test group (group in which 1,10-phenanthroline was added) and both activities were compared with each other. Thereby, the inhibition effect of 1,10-phenanthroline on purified FAD-GDH was examined.
Subsequently, 0.05 mL of enzyme solution was added, the change of absorbance in 600 nm of DCIP (ΔABS/min) was measured, and the enzymatic activity was calculated by the following calculation formula.
In the above-mentioned measurement method, the enzymatic activities when 1,10-phenanthroline was added so that the final concentration became 1 mM, 5 mM, 10 mM, 25 mM, and 50 mM were measured, respectively.

[10] = Investigation of optimum temperature; type: biochemical; details: PIPES-NaOH buffer pH 6.5, 30-65° C.
Description: Thus, the enzymatic activity was measured. […] (FIG. 6).

[11] = Investigation of pH for stability; type: physicochemical; details: pH 3.0 to pH 7.0, 37° C., 30 minutes
Description: Herein, the optimum pH is a value measured in, for example, Mcllvaine buffer as mentioned below in the Examples. The optimum temperature is also a value measured in, for example, PIPES-NaOH buffer (pH 6.5). Furthermore, the enzyme maintains 80% or more of the activity when it is treated under a certain pH condition at 37° C. for 30 minutes, the enzyme can be “stable” in the pH condition. Similarly, when the activity of the enzyme is not substantially deteriorated (that is to say, about 100% of the activity is maintained) after it is treated under a certain temperature condition in a suitable buffer solution (for example, PIPES-NaOH buffer, pH 6.5) for 20 minutes, the enzyme can be “stable” in the temperature condition. The Km value and the isoelectric point can be measured and evaluated by the method described below in the Examples (columns 8 and 6).
Each treatment solution was appropriately diluted with 0.2M KH2PO4—NaOH buffer (pH 6.5) and the FAD-GDH activity was measured by the above-mentioned method 1. As a control, the activity of purified FAD-GDH, which was diluted with 0.1M KH2PO4—NaOH buffer (pH 6.5) and stored in ice, was also measured. As a result, FAD-GDH maintains 80% or more of the activity at least in the range from pH 3.0 to pH 7.0, showing that FAD-GDH is stable in the range from pH 3.0 to pH 7.0 (FIG. 7).

[12] = Investigation of temperature for stability; type: physicochemical
Description: Herein, the optimum pH is a value measured in, for example, Mcllvaine buffer as mentioned below in the Examples. The optimum temperature is also a value measured in, for example, PIPES-NaOH buffer (pH 6.5). Furthermore, the enzyme maintains 80% or more of the activity when it is treated under a certain pH condition at 37° C. for 30 minutes, the enzyme can be “stable” in the pH condition. […] The Km value and the isoelectric point can be measured and evaluated by the method described below in the Examples (columns 8 and 6).
Purified FAD-GDH was diluted to 1 U/mL with 50 mM PIPES-NaOH buffer (pH 6.5) containing 1 mM calcium chloride, 0.1% (w/v) Triton X-100, and 0.1% (w/v) bovine serum albumin and treated at each designated temperature (5, 30, 40, 50, or 60° C.) for 20 minutes. Each treated solution was cooled in ice and then it was diluted with 50 mM PIPES-NaOH buffer (pH 6.5) containing 1 mM calcium chloride, 0.1% (w/v) Triton X-100, 0.1% (w/v) bovine serum albumin, and the FAD-GDH activity was measured in the above-mentioned method 1. As a control, FAD-GDH of the not thermally treated enzyme was measured. […]

[13] = Measurement of isoelectric point (glycerol density gradient electrophoresis); type: physicochemical
Description: This dialysis sample was subjected to glycerol density gradient electrophoresis. A carrier ampholyte having a column volume of 110 mL (Pharmalyte™ 3-10 for IEF (Amersham Biosciences AB), average final concentration of 1%) was used to allow an electric current to pass at 5° C. at a constant voltage of 400V for 48 hours. After passing current, samples were recovered at the flow rate of about 2 mL/min (one fraction was made to be 1.5 mL). When pH and FAD-GDH activity of each fraction were measured, pI of FAD-GDH derived from Aspergillus oryzae BB-56 was 6.4 (FIG. 9).

[14] = PMS/NTB, pH 6.5, 37° C.
Description: 2.55 mL of 50 mM PIPES-NaOH buffer (pH 6.5) containing 0.22% (w/v) Triton X-100, 0.1 mL of 1M D-glucose solution, 0.2 mL of 3 mM PMS solution, and 0.1 mL of 6.6 mM NTB solution were mixed with each other and kept at 37° C. for 5 minutes. […] Diformazan produced by the enzyme reaction was measured in the absorbance in 570 nm and the amount Diformazan produced per minute was measured. Thus, the enzymatic activity was measured.

[15] = phosphate buffer pH 7.0, 37° C.; for GO activity: 500 nm
Description: D-glucose+O2→D-glucono-δ-lactone+H2O2 Reaction 1
H2O2+4-aminoantipyrine+phenol→quinonimine dye+4H2O Reaction 2
H2O2 produced with GO in the reaction 1 is used in a production reaction of quinonimine dye with peroxidase in the reaction 2. By measuring the quinonimine dye in the absorbance in 500 nm, the GO activity was measured. The amount of enzyme oxidizing 1 μmole of D-glucose for one minute in the reaction condition at 37° C. is defined as one unit of the GO activity.
2.0 mL of phenol solution (0.1M phosphate buffer (pH 7.0) containing 0.152% phenol and 0.152% Triton X-100), 0.5 mL of 0.555 mol/L D-glucose solution, 0.5 mL of 25 U/mL peroxidase (AMANO ENZYME INC) solution, and 0.1 mL of 4 mg/mL 4-aminoantipyrine solution were mixed with each other and kept at 37° C. for 5 minutes. […] Two minutes and 5 minutes after the reaction was started, the absorbance in 500 nm was measured. Furthermore, as enzyme blank, 0.1M phosphate buffer (pH 7.0) was added instead of an enzyme solution, similarly the absorbance was measured. The GO activity was calculated from the following calculation formula.
In the formula, “3” denotes a reaction time, “12.88” denotes molecular absorption constant (mM) of the quinonimine dye, “1/2” denotes a coefficient based on the fact that 1 mole of quinonimine dye is produced from 2 mole of H2O2, “3.2” denotes a final liquid amount of the reaction solution, “0.1” is sample amount (mL), and “Dm” is dilution ratio, respectively.

[16] = substrate: OC[C@H]1OC(O)[C@H](O)[C@@H](O)[C@@H]1O; experiment: Measurement of Michaelis-Menten Km constant (Lineweaver-Burk plot); type: biochemical, Aspergillus oryzae BB-56; details: other: purified FAD-GDH, PIPES-NaOH pH 6.5, 37° C.

OC[C@H]1O[C@H](O[C@H]2[C@H](O)[C@@H](O)C(O)O[C@@H]2CO)[C@H](O)[C@@H](O)[C@@H]1O (mixture of isomers) [maltose]
relative activity (purified FAD-GDH [1]): 0.582%
relative activity, BB-56 [2]: 0%
relative activity, IAM2603 [3]: 0%
relative activity, IAM2628 [4]: 0%
relative activity, IAM2683 [5]: 0%
relative activity, IAM2706 [6]: 0%
relative activity, IAM2736 [7]: 0%
relative activity, NBRC30113 [8]: 0%

c1cnc2c(c1)ccc1cccnc12 [1,10-phenanthroline]
Inhibition effect (purified FAD-GDH [9]; final concentration of 1,10-phenanthroline 5 mM): 21%
Inhibition effect (purified FAD-GDH [9]; final concentration of 1,10-phenanthroline 10 mM): 38%

O=CC[C@@H](O)[C@H](O)[C@H](O)CO [2-deoxyglucose]
relative activity, BB-56 [2]: 35.1%
relative activity, IAM2603 [3]: 29.0%
relative activity, IAM2628 [4]: 34.2%
relative activity, IAM2683 [5]: 32.7%
relative activity, IAM2706 [6]: 33.9%
relative activity, IAM2736 [7]: 31.3%
relative activity, NBRC30113 [8]: 35.3%

O=C(CO)[C@@H](O)[C@H](O)[C@H](O)CO [fructose]
relative activity, BB-56 [2]: 0%
relative activity, IAM2603 [3]: 0%
relative activity, IAM2628 [4]: 1.40%
relative activity, IAM2683 [5]: 0%
relative activity, IAM2706 [6]: 0%
relative activity, IAM2736 [7]: 0%
relative activity, NBRC30113 [8]: 0%

O=C[C@H](O)[C@@H](O)[C@@H](O)[C@H](O)CO [galactose]
relative activity (purified FAD-GDH [1]): 0.349%

O=C[C@H](O)[C@@H](O)[C@H](O)CO [xylose]
relative activity (purified FAD-GDH [1]): 22.7%
relative activity, BB-56 [2]: 17.6%
relative activity, IAM2603 [3]: 16.1%
relative activity, IAM2628 [4]: 16.4%
relative activity, IAM2683 [5]: 17.3%
relative activity, IAM2706 [6]: 16.1%
relative activity, IAM2736 [7]: 14.6%
relative activity, NBRC30113 [8]: 17.6%

flavin adenine dinucleotide-binding glucose dehydrogenase
optimum temperature [10]: about 60 °C
activity maintained after pH treatment [11]: ≥ 80%
activity maintained after thermal treatment ([12]; 40° C. or less, 20 minutes, pH 6.5): ~100%
temperature for stability ([12]; treated 20 minutes in PIPES-NaOH pH 6.5, stable = about 100% of activity maintained): ≤ 40 °C
isoelectric point (pI) ([13]; listed as FAD-GDH): about 6.4
isoelectric point (pI) ([13]; listed as FAD-GDH derived from Aspergillus oryzae BB-56): 6.4
GDH activity [14]: 119 U/mL
GO activity (in words) [15]: does not substantially have the GO activity
GO activity [15]: 0.0025 U/mL

glucose oxidase [GO]
GDH activity [14]: 8.86 U/mL
GDH activity (in words) [14]: also has the GDH activity
GO activity [15]: 67.8 U/mL

maltohexaose
relative activity (purified FAD-GDH [1]): 0.479%

maltopentaose
relative activity (purified FAD-GDH [1]): 4.55%

maltotriose
relative activity (purified FAD-GDH [1]): 0.239%

B1: purified FAD-GDH (Aspergillus oryzae) (protein)
chain: SPAGRAKNTTTYDYIVVGGGTSGLVVANRLSENPDVSVLLLEAGASVFNNPDVTNANGYGLAFGSAIDWQYQSINQSYAGGKQQVLRAGKALGGTSTINGMAYTRAEDVQIDVWQKLGNEGWTWKDLLPYYLKSENLTAPTSSQVAAGAAYNPAVNGKEGPLKVGWSGSLASGNLSVALNRTFQAAGVPWVEDVNGGKMRGFNIYPSTLDVDLNVREDAARAYYFPYDDRKNLHLLENTTANRLFWKNGSAEEAIADGVEITSADGKVTRVHAKKEVIISAGALRSPLILELSGVGNPTILKKNNITPRVDLPTVGENLQDQFNNGMAGEGYGVLAGASTVTYPSISDVFGNETDSIVASLRSQLSDYAAATVKVSNGHMKQEDLERLYQLQFDLIVKDKVPIAEILFHPGGGNAVSSEFWGLLPFARGNIHISSNDPTAPAAINPNYFMFEWDGKSQAGIAKYIRKILRSAPLNKLIAKETKPGLSEIPATAADEKWVEWLKANYRSNFHPVGTAAMMPRSIGGVVDNRLRVYGTSNVRVVDASVLPFQVCGHLVSTLYAVAERASDLIKEDAKSA
Km [16]: 8.2 mM and 8 mM
